According to US9695155B2, “Herbicidal substituted pyrimidinyloxy benzene compounds” (E. I. DU PONT DE NEMOURS AND COMPANY, priority 2013, dated 2017):

How the values were obtained:
hairy beggarticks = assay: Test E preemergence; type: in vivo, Bidens pilosa; conditions: for Beggarticks plant response rating: scale 0 to 100 (0 no effect, 100 complete control); for Plant response rating, Beggarticks: scale 0 to 100, 0 no effect, 100 complete control
Method in brief: (§1)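 Response was scored visually on a 0-100 scale (100 = complete control) versus controls after 14 to 21 days in the greenhouse. Test chemicals, formulated with surfactant in a non-phytotoxic solvent mixture, had been applied preemergence to seeds in silt loam soil or postemergence to 1- to 4-leaf plants in potting medium.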

Italian ryegrass = assay: Test E preemergence; type: in vivo, Lolium multiflorum; conditions: for Ryegrass, Italian plant response rating: scale 0 to 100 (0 no effect, 100 complete control); for Plant response rating, Ryegrass, Italian: 125 g ai/ha, scale 0 to 100, 0 no effect, 100 complete control
Method in brief: as §1

nightshade = assay: Test E preemergence; type: in vivo, Solanum ptycanthum; conditions: for Nightshade plant response rating: scale 0 to 100 (0 no effect, 100 complete control); for Plant response rating, Nightshade: 125 g ai/ha, scale 0 to 100, 0 no effect, 100 complete control
Method in brief: as §1

kochia [1] = assay: Test E preemergence; type: in vivo, Kochia scoparia; conditions: for Kochia plant response rating: scale 0 to 100 (0 no effect, 100 complete control); for Plant response rating, Kochia: 125 g ai/ha, scale 0 to 100, 0 no effect, 100 complete control
Method in brief: as §1

morningglory = assay: Test E preemergence; type: in vivo, Ipomoea coccinea; conditions: for Morningglory plant response rating: scale 0 to 100 (0 no effect, 100 complete control); for Plant response rating, Morningglory: 125 g ai/ha, scale 0 to 100, 0 no effect, 100 complete control
Method in brief: as §1

johnsongrass = assay: Test E preemergence; type: in vivo, Sorghum halepense; conditions: for Johnsongrass plant response rating: scale 0 to 100 (0 no effect, 100 complete control); for Plant response rating, Johnsongrass: 125 g ai/ha, scale 0 to 100, 0 no effect, 100 complete control
Method in brief: as §1

goosegrass = assay: Test E preemergence; type: in vivo, Eleusine indica; conditions: for Goosegrass plant response rating: scale 0 to 100 (0 no effect, 100 complete control); for Plant response rating, Goosegrass: 125 g ai/ha, scale 0 to 100, 0 no effect, 100 complete control
Method in brief: as §1

waterhemp = assay: Test E preemergence; type: in vivo, Amaranthus rudis; conditions: for Waterhemp plant response rating: scale 0 to 100 (0 no effect, 100 complete control); for Plant response rating, Waterhemp: 125 g ai/ha, scale 0 to 100, 0 no effect, 100 complete control
Method in brief: as §1

field bindweed = assay: Test E preemergence; type: in vivo, Convolvulus arvensis; conditions: for Field Bindweed plant response rating: scale 0 to 100 (0 no effect, 100 complete control); for Plant response rating, Field Bindweed: 125 g ai/ha, scale 0 to 100, 0 no effect, 100 complete control
Method in brief: as §1

giant foxtail = assay: Test E preemergence; type: in vivo, Setaria faberii; conditions: for Foxtail, Giant plant response rating: scale 0 to 100 (0 no effect, 100 complete control); for Plant response rating, Foxtail, Giant: 125 g ai/ha, scale 0 to 100, 0 no effect, 100 complete control
Method in brief: as §1

corn = assay: Test E preemergence; type: in vivo, Zea mays; conditions: for Corn plant response rating: scale 0 to 100 (0 no effect, 100 complete control); for Plant response rating, Corn: 125 g ai/ha, scale 0 to 100, 0 no effect, 100 complete control
Method in brief: as §1

kochia [2] = assay: Test A preemergence; type: in vivo, Kochia scoparia; conditions: for Plant response rating, Kochia: 0 to 100 scale where 0 is no effect and 100 is complete control
Method in brief: (§2)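 Visual 0–100 rating (100 = complete control) taken about 10 d post-treatment relative to untreated checks. Preemergence: directed soil spray on sown loam/sand pots. Postemergence: seedlings 2–10 cm, 1–2 leaf. Non-phytotoxic solvent formulation with surfactant.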

ragweed = assay: Test A postemergence; type: in vivo, Ambrosia elatior
Method in brief: as §2

kochia [3] = assay: Test A postemergence; type: in vivo, Kochia scoparia
Method in brief: as §2

galium = assay: Test A postemergence; type: in vivo, Galium aparine
Method in brief: as §2

[4] = 31 g ai/ha, 0 to 100 scale, 0 no effect, 100 complete control
[5] = 125 g ai/ha, 0 to 100 scale, 0 no effect, 100 complete control
[6] = 125 g ai/ha, 0 to 100 scale where 0 is no effect and 100 is complete control
[7] = 500 g ai/ha, 0 to 100 scale where 0 is no effect and 100 is complete control

FCc1cccc(Oc2ncc(Cl)cn2)c1-n1cc(Cl)cn1 [Compound 250]
Beggarticks plant response rating (hairy beggarticks; 16 g ai/ha, preemergence): 0 | Beggarticks plant response rating (hairy beggarticks; 31 g ai/ha, preemergence): 0 | Beggarticks plant response rating (hairy beggarticks; 62 g ai/ha, preemergence): 0 | Plant response rating, Beggarticks (hairy beggarticks; preemergence, 125 g ai/ha): 20 | Ryegrass, Italian plant response rating (Italian ryegrass; 31 g ai/ha): 0 | Ryegrass, Italian plant response rating (Italian ryegrass; 62 g ai/ha): 0 | Plant response rating, Ryegrass, Italian (Italian ryegrass): 0 | Nightshade plant response rating (nightshade; 31 g ai/ha): 0 | Nightshade plant response rating (nightshade; 62 g ai/ha): 35 | Plant response rating, Nightshade (nightshade): 98 | Kochia plant response rating (kochia [1]; 31 g ai/ha): 0 | Kochia plant response rating (kochia [1]; 62 g ai/ha): 0 | Plant response rating, Kochia (kochia [1]): 98 | Morningglory plant response rating (morningglory; 31 g ai/ha): 0 | Morningglory plant response rating (morningglory; 62 g ai/ha): 0 | Plant response rating, Morningglory (morningglory): 20 | Johnsongrass plant response rating (johnsongrass; 31 g ai/ha): 0 | Johnsongrass plant response rating (johnsongrass; 62 g ai/ha): 0 | Plant response rating, Johnsongrass (johnsongrass): 50 | Goosegrass plant response rating (goosegrass; 31 g ai/ha): 0 | Goosegrass plant response rating (goosegrass; 62 g ai/ha): 0 | Plant response rating, Goosegrass (goosegrass): 65 | Waterhemp plant response rating (waterhemp; 31 g ai/ha): 0 | Waterhemp plant response rating (waterhemp; 62 g ai/ha): 0 | Plant response rating, Waterhemp (waterhemp): 100 | Field Bindweed plant response rating (field bindweed; 16 g ai/ha): 0 | Field Bindweed plant response rating (field bindweed; 31 g ai/ha): 0 | Field Bindweed plant response rating (field bindweed; 62 g ai/ha): 0 | Plant response rating, Field Bindweed (field bindweed): 0 | Foxtail, Giant plant response rating (giant foxtail; 16 g ai/ha): 0 | Foxtail, Giant plant response rating (giant foxtail; 31 g ai/ha): 0 | Foxtail, Giant plant response rating (giant foxtail; 62 g ai/ha): 15 | Plant response rating, Foxtail, Giant (giant foxtail): 98 | Corn plant response rating (corn; 16 g ai/ha): 0 | Corn plant response rating (corn; 31 g ai/ha): 0 | Corn plant response rating (corn; 62 g ai/ha): 0 | Plant response rating, Corn (corn): 20 | Plant response rating, Kochia (kochia [2]; 31 g ai/ha, visual, approximately 10 days): 90 | Kochia plant response rating (0 to 100 scale) (kochia [2]; 125 g ai/ha): 0 | Plant response rating, Ragweed (ragweed; [4]): 50 | Plant response rating, Ragweed (ragweed; [5]): 100 | Plant response rating, Kochia (kochia [3]; [4]): 60 | Plant response rating, Kochia (kochia [3]; [5]): 90 | Plant response rating, Galium (galium; [4]): 10 | Plant response rating, Galium (galium; [5]): 60

N#Cc1cccc(Oc2ncc(F)cn2)c1-n1cc(I)cn1 [Compound 86]
Beggarticks plant response rating (hairy beggarticks; 16 g ai/ha, preemergence): 0 | Beggarticks plant response rating (hairy beggarticks; 31 g ai/ha, preemergence): 0 | Plant response rating, Beggarticks (hairy beggarticks; Preemergence, 62 g ai/ha): 35 | Plant response rating, Beggarticks (hairy beggarticks; preemergence, 125 g ai/ha): 70 | Ryegrass, Italian plant response rating (Italian ryegrass; 16 g ai/ha): 0 | Ryegrass, Italian plant response rating (Italian ryegrass; 31 g ai/ha): 0 | Ryegrass, Italian plant response rating (Italian ryegrass; 62 g ai/ha): 0 | Plant response rating, Ryegrass, Italian (Italian ryegrass): 5 | Nightshade plant response rating (nightshade; 16 g ai/ha): 0 | Nightshade plant response rating (nightshade; 31 g ai/ha): 0 | Nightshade plant response rating (nightshade; 62 g ai/ha): 0 | Plant response rating, Nightshade (nightshade): 98 | Kochia plant response rating (kochia [1]; 16 g ai/ha): 0 | Kochia plant response rating (kochia [1]; 31 g ai/ha): 90 | Kochia plant response rating (kochia [1]; 62 g ai/ha): 100 | Plant response rating, Kochia (kochia [1]): 100 | Morningglory plant response rating (morningglory; 16 g ai/ha): 0 | Morningglory plant response rating (morningglory; 31 g ai/ha): 10 | Morningglory plant response rating (morningglory; 62 g ai/ha): 30 | Plant response rating, Morningglory (morningglory): 75 | Johnsongrass plant response rating (johnsongrass; 16 g ai/ha): 0 | Johnsongrass plant response rating (johnsongrass; 31 g ai/ha): 0 | Johnsongrass plant response rating (johnsongrass; 62 g ai/ha): 65 | Plant response rating, Johnsongrass (johnsongrass): 65 | Goosegrass plant response rating (goosegrass; 16 g ai/ha): 0 | Goosegrass plant response rating (goosegrass; 31 g ai/ha): 0 | Goosegrass plant response rating (goosegrass; 62 g ai/ha): 50 | Plant response rating, Goosegrass (goosegrass): 50 | Waterhemp plant response rating (waterhemp; 16 g ai/ha): 0 | Waterhemp plant response rating (waterhemp; 31 g ai/ha): 70 | Waterhemp plant response rating (waterhemp; 62 g ai/ha): 100 | Plant response rating, Waterhemp (waterhemp): 100 | Field Bindweed plant response rating (field bindweed; 16 g ai/ha): 0 | Field Bindweed plant response rating (field bindweed; 31 g ai/ha): 10 | Field Bindweed plant response rating (field bindweed; 62 g ai/ha): 20 | Plant response rating, Field Bindweed (field bindweed): 90 | Foxtail, Giant plant response rating (giant foxtail; 16 g ai/ha): 0 | Foxtail, Giant plant response rating (giant foxtail; 31 g ai/ha): 15 | Foxtail, Giant plant response rating (giant foxtail; 62 g ai/ha): 30 | Plant response rating, Foxtail, Giant (giant foxtail): 100 | Corn plant response rating (corn; 16 g ai/ha): 0 | Corn plant response rating (corn; 31 g ai/ha): 0 | Corn plant response rating (corn; 62 g ai/ha): 0 | Plant response rating, Corn (corn): 5 | Plant response rating, Kochia (kochia [2]; 125 g ai/ha): 100 | Kochia plant response rating (kochia [2]; 500 g ai/ha, 0 to 100 scale, 0 no effect, 100 complete control, approx. 10 days): 100 | Plant response rating, Ragweed (ragweed; [6]): 90 | Plant response rating, Ragweed (ragweed; [7]): 100 | Plant response rating, Kochia (kochia [3]; [6]): 100 | Plant response rating, Kochia (kochia [3]; [7]): 100 | Plant response rating, Galium (galium; [6]): 100 | Plant response rating, Galium (galium; [7]): 100
